Data: PMC10905675, “INX-315, a Selective CDK2 Inhibitor, Induces Cell Cycle Arrest and Senescence in Solid Tumors” (Cancer Discovery, 2023)
Where two headings read alike, the source gives them in different places.

Assays:
[1] = test system: palbociclib-resistant MCF7 cells; test: CellTiter Glo viability assay; type: cell-based; settings: Homo sapiens, MCF7, Supp Fig S9B, CDK4/6 inhibitor monotherapy; read-out: IC50
Method: (§1) An exception to this is MCF7PDRCl5-1 cells which were first cultured for 5 days without palbociclib then plated as described. MCF7PDRCl5-1 cells were treated with either a dose curve of the indicated CDK4/6i or a dose curve of INX-315 + 1 µmol/L of the indicated CDK4/6i. Cell viability was determined using the CellTiter-Glo assay (Promega, G9241) following manufacturer's instructions. Plates were processed on either BioTek Synergy2 multi-mode (Agilent) or ClarioSTAR (BMG Labtech) plate readers. T47D and MCF7 cells were seeded into […] plates using BioTek 406 (Aglient) and treated with a ten-point dose concentration from 10 µmol/L to 0.3 nmol/L of INX-315 for 2× doubling times. Plates were fixed with 4% PFA and stained with Rhodamine-Phalloidin (Bio-Trend, 00027) and DAPI (5 mg/mL, Invitrogen, catalog no. D1306). Plates were imaged using CellInsight CX7 LZR and DAPI-positive cells were counted using Thermo Fisher Scientific HCS Studio Cell Analysis Software.

[2] = molecular target: T1, CDK1/cyclin B1 (Homo sapiens, UniProt P06493); test: NanoBRET live cell target engagement; type: binding; settings: Supp Fig S1E, NanoBRET; read-out: Intracellular IC50 (nM) CDK1/B1
T1 construct: purchased Millipore 14-450M
T1 sequence (P06493 whole entry): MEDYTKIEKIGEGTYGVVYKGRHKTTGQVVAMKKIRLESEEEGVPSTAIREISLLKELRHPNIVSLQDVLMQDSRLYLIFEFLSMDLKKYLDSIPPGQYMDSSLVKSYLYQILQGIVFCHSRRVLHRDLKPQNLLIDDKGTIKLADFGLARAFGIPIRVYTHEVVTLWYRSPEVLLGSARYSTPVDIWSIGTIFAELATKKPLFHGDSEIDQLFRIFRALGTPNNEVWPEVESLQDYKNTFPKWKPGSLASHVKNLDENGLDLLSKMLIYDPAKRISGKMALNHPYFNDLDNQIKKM
T1 sequence (P14635 whole entry partner): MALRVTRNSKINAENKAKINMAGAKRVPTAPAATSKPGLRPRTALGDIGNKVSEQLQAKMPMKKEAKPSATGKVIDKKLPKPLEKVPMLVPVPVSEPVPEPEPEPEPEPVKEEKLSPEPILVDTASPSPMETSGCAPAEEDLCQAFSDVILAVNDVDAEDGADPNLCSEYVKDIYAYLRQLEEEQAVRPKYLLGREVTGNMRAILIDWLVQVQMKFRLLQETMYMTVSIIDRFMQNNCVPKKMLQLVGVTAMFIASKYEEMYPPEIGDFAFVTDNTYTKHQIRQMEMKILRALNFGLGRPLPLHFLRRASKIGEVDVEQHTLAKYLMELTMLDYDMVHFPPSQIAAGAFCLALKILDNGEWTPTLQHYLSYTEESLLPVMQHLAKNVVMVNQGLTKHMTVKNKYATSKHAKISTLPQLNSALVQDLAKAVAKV
Method: (§2) Reaction Bio (Malvern, PA) conducted NanoBRET assays utilizing Promega NanoLuc technology with two replicates per experiment. The CDK2/E1 and CDK1/B1 values are the average of two separate experiments.
(§3) HEK293 cells were transfected using Opti-MEM without serum containing ratios of 9.0 µg/mL of Transfection Carrier DNA, 1.0 µg/mL of NanoLuc fusion vector DNA and 1 mL of Opti-MEM without phenol red. 30 µL of FuGENE HD transfection reagent was added to each milliliter of DNA mixture to form lipid:DNA complex. After incubation for 20 minutes at room temperature, 1 part lipid/DNA complex was added to 20 parts HEK293 cells in suspension. Cells were then plated and incubated overnight before being trypsinized and resuspended at 2 × 10^5 cells/mL. NanoBRET tracer reagent was added to cells at a ratio of 1 part tracer to 20 parts cell suspension. Cells were added to a 384-well plate and incubated for 1 hour. Plates were removed and incubated at room temperature for 15 minutes to equilibrate before 3x complete substrate plus inhibitor was added. After 2–3 minutes of incubation at room temperature, donor and acceptor wavelengths (460 nm and 600 nm, respectively) were measured using an Envision 2104 plate reader.

[3] = molecular target: T2, CDK9/cyclin T1 (Homo sapiens, UniProt P50750); test: NanoBRET live cell target engagement; type: binding; settings: Supp Fig S1E, NanoBRET; read-out: Intracellular IC50 (nM) CDK9/T1
T2 construct: purchased Carna 04-110
T2 sequence (P50750 whole entry): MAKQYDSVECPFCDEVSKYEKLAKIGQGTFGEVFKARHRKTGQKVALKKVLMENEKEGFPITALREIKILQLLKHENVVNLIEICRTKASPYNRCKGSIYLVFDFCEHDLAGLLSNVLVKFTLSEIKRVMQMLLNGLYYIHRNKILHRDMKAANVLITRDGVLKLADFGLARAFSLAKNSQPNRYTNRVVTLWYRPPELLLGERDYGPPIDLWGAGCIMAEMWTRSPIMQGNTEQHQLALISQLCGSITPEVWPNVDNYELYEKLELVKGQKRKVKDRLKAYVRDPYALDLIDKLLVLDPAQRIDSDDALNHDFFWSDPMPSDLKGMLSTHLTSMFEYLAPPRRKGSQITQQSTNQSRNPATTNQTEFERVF
T2 sequence (O60563 whole entry partner): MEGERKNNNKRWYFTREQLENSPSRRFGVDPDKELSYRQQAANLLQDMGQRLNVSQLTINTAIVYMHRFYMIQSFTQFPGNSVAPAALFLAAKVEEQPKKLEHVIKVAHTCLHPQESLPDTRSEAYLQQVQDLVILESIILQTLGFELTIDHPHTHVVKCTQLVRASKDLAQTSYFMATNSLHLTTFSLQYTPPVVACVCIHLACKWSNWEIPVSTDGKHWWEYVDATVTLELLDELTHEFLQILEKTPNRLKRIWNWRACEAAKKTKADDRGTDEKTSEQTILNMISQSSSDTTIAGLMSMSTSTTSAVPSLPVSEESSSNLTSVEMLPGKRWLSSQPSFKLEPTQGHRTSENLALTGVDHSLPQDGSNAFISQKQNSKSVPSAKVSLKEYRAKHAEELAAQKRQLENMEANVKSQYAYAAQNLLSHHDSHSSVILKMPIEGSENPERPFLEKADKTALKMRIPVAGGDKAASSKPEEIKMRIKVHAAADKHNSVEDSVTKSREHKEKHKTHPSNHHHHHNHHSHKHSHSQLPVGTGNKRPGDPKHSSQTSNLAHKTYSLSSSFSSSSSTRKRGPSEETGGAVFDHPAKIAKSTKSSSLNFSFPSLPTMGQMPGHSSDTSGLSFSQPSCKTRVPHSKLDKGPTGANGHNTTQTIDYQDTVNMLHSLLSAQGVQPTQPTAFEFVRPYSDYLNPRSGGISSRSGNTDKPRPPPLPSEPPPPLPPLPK
Method: as §2, §3

[4] = test system: all CCNE1-amplified lines; test: CellTiter Glo viability assay; type: cell-based; settings: all CCNE1-amplified lines, INX-315 vs PF-07104091, 6 days
Method: as §1

[5] = test system: MCF7 Parent; test: Cell number dose-response; type: cell-based; settings: Supp Fig S7D, 7 days, read-out: IC50 (nM) MCF7
Excerpt: (§4) MCF7 abemaciclib-resistant cells were generated by continuous treatment with abemaciclib at a concentration of 250 nmol/L for 72 days, followed by 500 nmol/L for 48 days. MCF7 fulvestrant-resistant cells were generated by continuous treatment of 100 nmol/L Fulvestrant for 125 days. MCF7 abemaciclib/fulvestrant-resistant cells were generated by treating abemaciclib-resistant cells continuously with 100 nmol/L fulvestrant for 137 days. T47D abemaciclib-resistant lines were generated by continuous treatment with abemaciclib at a concentration of 500 nmol/L for 73 days. T47D fulvestrant–resistant cells were generated by continuous treatment with 100 nmol/L fulvestrant for 68 days. T47D abemaciclib/fulvestrant-resistant cells were generated by treating abemaciclib-resistant cells with continuous treatment of 100 nmol/L Fulvestrant for 60 days. Resistant cell lines were cultured in medium containing drug(s) that the line is resistant to and further authenticated using short tandem repeat profiling.
as §1

[6] = test system: MCF7 Fulv-resistant; test: Cell number dose-response; type: cell-based; settings: Supp Fig S7D, Fulv-Resistant in 100 nM fulvestrant, 7 days; read-out: IC50 (nM) MCF7
Excerpt: as §4, §1

[7] = test system: MCF7 Abema-resistant; test: Cell number dose-response; type: cell-based; settings: Supp Fig S7D, Abema-Resistant in 500 nM abemaciclib, 7 days; read-out: IC50 (nM) MCF7
Excerpt: as §4, §1

[8] = molecular target: T1, CDK1/cyclin B1; test: Nanosyn biochemical assay; settings: value (SEM)
Method: (§5) Compounds were tested in kinase assays (Nanosyn, Inc.). The assays were completed using microfluidic kinase detection technology (Caliper Assay Platform). The compounds were tested in 12-point dose–response format in singlicate at the Km for ATP. Phosphoacceptor substrate peptide concentration used was 1 µmol/L and staurosporine was used as the reference compound for all assays. Details for individual Nanosyn assays performed are provided here: […]

[9] = molecular target: T3, CDK6/cyclin D3 (Homo sapiens, UniProt Q00534); test: Nanosyn biochemical assay; settings: value (SEM)
T3 construct: purchased Carna 04-107
T3 sequence (Q00534 whole entry): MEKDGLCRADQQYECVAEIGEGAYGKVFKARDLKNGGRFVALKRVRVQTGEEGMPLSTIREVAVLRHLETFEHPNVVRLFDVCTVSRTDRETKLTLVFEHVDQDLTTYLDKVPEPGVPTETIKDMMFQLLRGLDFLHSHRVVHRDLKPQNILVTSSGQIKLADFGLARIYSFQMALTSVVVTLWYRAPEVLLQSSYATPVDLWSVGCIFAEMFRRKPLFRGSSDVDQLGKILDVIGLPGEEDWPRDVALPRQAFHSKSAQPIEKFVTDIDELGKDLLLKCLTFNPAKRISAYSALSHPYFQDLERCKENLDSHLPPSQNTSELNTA
T3 sequence (P30281 whole entry partner): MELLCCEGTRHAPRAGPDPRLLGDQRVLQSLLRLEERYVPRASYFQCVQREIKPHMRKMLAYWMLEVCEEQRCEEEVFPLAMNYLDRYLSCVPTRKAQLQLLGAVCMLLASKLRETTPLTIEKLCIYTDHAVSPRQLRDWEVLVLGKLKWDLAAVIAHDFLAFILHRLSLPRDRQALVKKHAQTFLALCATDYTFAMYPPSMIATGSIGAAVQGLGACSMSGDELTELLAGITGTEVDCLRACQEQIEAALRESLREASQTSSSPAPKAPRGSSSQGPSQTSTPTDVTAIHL
Method: as §5

[10] = molecular target: T2, CDK9/cyclin T1; test: Nanosyn biochemical assay; settings: value (SEM)
Method: as §5

[11] = Microsomal stability assay; type: in vitro ADME
Method: Microsomal stability was determined by Absorption Systems (Exton, PA). INX-315 was tested in mixed-gender human liver microsomes (Lot #1010420), male Sprague-Dawley rat liver microsomes (Lot #1910100), male CD-1 mouse liver microsomes (Lot #2010017), and male beagle dog liver microsomes (Lot #2010046) were purchased from XenoTech/BioIVT by Absorption Systems. The reaction mixture, minus NADPH, was prepared as described below. The test article was added into the reaction mixture at a final concentration of 1 µmol/L. The control compound, testosterone, was run simultaneously with the test article in a separate reaction. The reaction mixture (without cofactor) was equilibrated in a shaking water bath at 37°C for 5 minutes. The reaction was initiated by the addition of the cofactor, and the mixture was incubated in a shaking water bath at 37°C. Aliquots (100 µL) were withdrawn at 0, 10, 20, 30, and 60 minutes. Test article and testosterone samples were immediately combined with 400 µL of ice-cold 50/50 acetonitrile (ACN)/H2O containing 0.1% formic acid and internal standard to terminate the reaction. The samples were then mixed and centrifuged to precipitate proteins. All samples were assayed by LC-MS/MS using electrospray ionization. The peak area response ratio (PARR) of analyte to internal standard at each time point was compared to the PARR at time 0 to determine the percent remaining at each time point. Half-lives and clearance were calculated using GraphPad software (RRID:SCR_002798), fitting to a single-phase exponential decay equation.

[12] = molecular target: T4, CDK7 (Homo sapiens, UniProt P50613); test: Nanosyn biochemical assay; settings: ATP at Km, value (SEM), read-out: IC50 (nmol/L) CDK7
T4 construct: purchased Carna 04-108
T4 sequence (P50613 whole entry): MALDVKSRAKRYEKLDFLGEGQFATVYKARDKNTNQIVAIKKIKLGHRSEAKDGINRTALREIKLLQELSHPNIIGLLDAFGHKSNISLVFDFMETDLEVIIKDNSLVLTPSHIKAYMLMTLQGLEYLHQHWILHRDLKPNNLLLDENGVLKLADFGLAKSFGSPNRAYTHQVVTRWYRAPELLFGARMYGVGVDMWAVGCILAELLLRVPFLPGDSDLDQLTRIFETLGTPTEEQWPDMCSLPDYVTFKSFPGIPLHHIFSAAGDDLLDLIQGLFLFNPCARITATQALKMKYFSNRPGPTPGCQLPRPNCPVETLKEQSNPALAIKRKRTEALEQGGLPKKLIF
T4 sequence (P51946 whole entry partner): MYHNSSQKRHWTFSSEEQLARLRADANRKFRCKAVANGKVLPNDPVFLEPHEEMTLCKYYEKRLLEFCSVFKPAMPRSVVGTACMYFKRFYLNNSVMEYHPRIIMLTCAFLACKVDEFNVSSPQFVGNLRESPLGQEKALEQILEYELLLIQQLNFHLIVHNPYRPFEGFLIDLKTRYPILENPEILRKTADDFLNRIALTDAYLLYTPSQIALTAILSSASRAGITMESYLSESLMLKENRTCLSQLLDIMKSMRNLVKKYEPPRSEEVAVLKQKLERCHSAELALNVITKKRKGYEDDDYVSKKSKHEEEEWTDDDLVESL
T4 sequence (P51948 whole entry partner): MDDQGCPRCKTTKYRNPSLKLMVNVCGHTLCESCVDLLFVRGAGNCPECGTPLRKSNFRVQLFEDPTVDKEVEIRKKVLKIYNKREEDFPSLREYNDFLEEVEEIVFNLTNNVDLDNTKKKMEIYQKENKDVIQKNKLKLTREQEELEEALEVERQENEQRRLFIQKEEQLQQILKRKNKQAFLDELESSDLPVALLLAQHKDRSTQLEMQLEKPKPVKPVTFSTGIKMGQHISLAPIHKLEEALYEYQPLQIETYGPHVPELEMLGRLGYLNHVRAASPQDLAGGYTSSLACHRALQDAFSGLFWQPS
Method: as §5

[13] = molecular target: T5, CDK5 (Homo sapiens, UniProt Q00535); test: Nanosyn biochemical assay; settings: ATP at Km, value (SEM), read-out: IC50 (nmol/L) CDK5
T5 construct: purchased ThermoFisher PV3000
T5 sequence (Q00535 whole entry): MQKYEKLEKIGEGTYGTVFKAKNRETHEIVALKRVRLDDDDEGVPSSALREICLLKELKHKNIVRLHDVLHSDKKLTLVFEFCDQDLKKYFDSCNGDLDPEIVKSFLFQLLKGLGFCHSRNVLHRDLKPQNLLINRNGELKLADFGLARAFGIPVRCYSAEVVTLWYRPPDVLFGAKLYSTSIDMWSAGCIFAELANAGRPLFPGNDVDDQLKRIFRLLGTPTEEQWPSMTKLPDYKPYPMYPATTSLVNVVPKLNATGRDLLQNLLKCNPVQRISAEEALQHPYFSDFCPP
T5 sequence (Q15078 2-307 partner limits assumed): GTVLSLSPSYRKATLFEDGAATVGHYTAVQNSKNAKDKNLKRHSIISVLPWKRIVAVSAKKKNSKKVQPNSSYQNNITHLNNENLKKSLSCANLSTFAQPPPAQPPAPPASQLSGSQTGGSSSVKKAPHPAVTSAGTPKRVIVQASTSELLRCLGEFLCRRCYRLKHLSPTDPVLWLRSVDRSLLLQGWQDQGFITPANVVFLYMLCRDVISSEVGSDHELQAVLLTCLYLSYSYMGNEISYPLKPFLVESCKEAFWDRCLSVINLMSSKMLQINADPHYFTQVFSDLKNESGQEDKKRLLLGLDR
Method: as §5

[14] = molecular target: T6, CDK2/cyclin E1 (Homo sapiens, UniProt P24941); test: Nanosyn biochemical assay; settings: Nanosyn, ATP at Km; value (SEM); read-out: IC50 (nmol/L) CDK2/cyclin E1
T6 construct: purchased Millipore 14-475
Method: as §5

[15] = molecular target: T7, CDK2/cyclin A2 (Homo sapiens, UniProt P24941); test: Nanosyn biochemical assay; settings: ATP at Km, value (SEM), read-out: IC50 (nmol/L) CDK2/cyclin A2
T7 construct: purchased Millipore 14-448
Method: as §5

[16] = molecular target: T8, CDK4/cyclin D1 (Homo sapiens, UniProt P11802); test: Nanosyn biochemical assay; settings: ATP at Km, value (SEM), read-out: IC50 (nmol/L) CDK4/cyclin D1
T8 construct: purchased ThermoFisher PV4400
Method: as §5

[17] = molecular target: T9, CDK5/p25 (Homo sapiens, UniProt Q00535); test: Nanosyn biochemical assay; settings: ATP at Km, value (SEM), read-out: IC50 (nmol/L) CDK5/p25
T9 construct: purchased BPS 40105
T9 sequence (Q00535 whole entry): as the sequence (Q00535 whole entry) above
T9 sequence (Q15078 99-307 partner limits assumed): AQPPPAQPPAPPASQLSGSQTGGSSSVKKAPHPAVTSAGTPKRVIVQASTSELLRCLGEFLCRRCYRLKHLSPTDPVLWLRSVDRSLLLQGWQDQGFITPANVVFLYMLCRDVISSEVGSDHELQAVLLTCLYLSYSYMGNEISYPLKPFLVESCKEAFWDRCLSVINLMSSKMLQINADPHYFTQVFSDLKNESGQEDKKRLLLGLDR
Method: as §5

[18] = molecular target: T10, CDK3/cyclin E1 (Homo sapiens, UniProt Q00526); test: Nanosyn biochemical assay; settings: ATP at Km, value (SEM), read-out: IC50 (nmol/L) CDK3/cyclin E1
T10 construct: purchased BPS 40103
Method: as §5

[19] = test system: ST4316B PDX; test: PDX tumor growth; type: in vivo, mice; settings: monotherapy; ribociclib 50 mg/kg per day
Method: PDX models were performed by Crown Biosciences (OV5398, GA0103, and GA0114) or XenoSTART (ST4316B). Tumor fragments from stock mice were harvested and implanted subcutaneously into the flank of NOD/SCID mice (OV5398, RRID:IMSR_JAX:001303), BALB/c nude mice (GA0103 and GA0114, RRID:IMSR_RJ:BALB-C-NUDE), or athymic nude mice (Crl:NU(NCr)-Foxn1nu, RRID:IMSR_CRL:490) (ST4316B). For CDX models, female athymic nude mice (Crl:NU(NCr)-Foxn1nu, RRID:IMSR_CRL:490) were inoculated with 1 × 10^7 50% Cultrex OVCAR3 cells in the flank. Experiments performed using MMTV-rtTA/tetO-HER2 mice were performed at the Peter MacCallum Cancer Centre. Tumor formation was induced and sustained in female mice with doxycycline as previously described ([33]). Randomization and treatment in all models began when median tumor volume reached a maximum of 300 mm^3.
Mice were treated via oral gavage. INX-315 was prepared weekly in 100% PEG400; abemaciclib was prepared as previously described ([33]) and ribociclib (Selleckchem, S7440) was prepared weekly in 0.5% methyl cellulose. To generate abemaciclib-resistant MMTV-rtTA/tetO-HER2 tumors, mice were treated continuously with abemaciclib at a dose of 75 mg/kg until tumors resumed growth as described in text. At this point and in all other MMTV-rtTA/tetO-HER2 mice experiments, mice were randomized into treatment groups and abemaciclib was administered to indicated groups at a dose of 50 mg/kg. In all MMTV-rtTA/tetO-HER2 mice experiments, INX-315 was administered at a dose of 50 mg/kg twice daily. For PDX model ST4316B, ribociclib was administered at 50 mg/kg per day.

[20] = both sexes, human, liver microsomes, 1 µmol/L, 60 min incubation, read-out: Half-life
[21] = male, CD-1, liver microsomes, Mouse microsomes, 60 min incubation
[22] = male, Sprague-Dawley, rat, liver microsomes, 1 µmol/L, 60 min incubation, read-out: Half-life
[23] = male, beagle, dog, liver microsomes, 1 µmol/L, 60 min incubation, read-out: Half-life
[24] = ATP at Km, read-out: IC50 (nmol/L) CDK1/cyclin B1
[25] = ATP at Km, read-out: IC50 (nmol/L) CDK6/cyclin D3

SMILES	half-life at 1 µmol/L [11, 20] [min]	half-life at 1 µmol/L [11, 21] [min]	half-life at 1 µmol/L [11, 22] [min]	half-life at 1 µmol/L [11, 23] [min]	IC50 [12] [nmol/L]	IC50 [13] [nmol/L]	IC50 [8, 24] [nM]	IC50 [9, 25] [nM]	IC50 [14] [nmol/L]	IC50 [15] [nmol/L]	IC50 [17] [nmol/L]	also measured
CC(C)N1CCN(c2ccc(Nc3ncc4cc5n(c4n3)C3(CCCCC3)CNC5=O)nc2)CC1 [Lerociclib, lerociclib, reference compound]												IC50 [1]: 1420 nM
COCc1cc(C(=O)Nc2cc([C@H]3CC[C@@H](OC(=O)NC(C)C)C3)[nH]n2)n(C)n1 [PF-07104091, reference compound]												IC50 [2]: 1180 nM; IC50 [3]: > 10000 nM; IC50 [4]: 125 nM; IC50 ([5]; Parent in DMSO): 562 nM; IC50 ([5]; Parent+Abema: 500 nM abemaciclib concurrently): 232 nM; IC50 [6]: 508 nM; IC50 [7]: 41.8 nM; IC50 ([8]; Supp Fig S1C, read-out: IC50 (nM) CDK1/B1): 65.8 nM; IC50 ([9]; Supp Fig S1C, read-out: IC50 (nM) CDK6/cyclin D3): > 1000 nM; IC50 ([10]; Supp Fig S1C, read-out: IC50 (nM) CDK9/cyclin T1): 363 nM
C[C@@H]1NC(=O)C2(CCCCC2)n2c1cc1cnc(Nc3ccc(S(N)(=O)=O)cc3)nc12 [Compound C]	15.3	< 10	< 10	23.4	796	50.2	41	214	5	4		
NS(=O)(=O)c1ccc(Nc2ncc3cc4n(c3n2)C2(CCCCC2)CN=C4)cc1 [Compound B]	< 10	< 10	< 10	< 10	33.5	0.5	1.2	8.6	0.1	0.1	0.4	IC50 [16]: 3.6 nmol/L; IC50 ([10]; ATP at Km, read-out: IC50 (nmol/L) CDK9/cyclin T1): 1.6 nM; IC50 [18]: 0.5 nmol/L
CN(C)C(=O)c1cc2cnc(Nc3ccc(N4CCNCC4)cn3)nc2n1C1CCCC1 [ribociclib, reference compound]												tumor growth [19]: slowed tumor growth modestly
CN1CCN(c2ccc(Nc3ncc4cc5n(c4n3)C3(CCCCC3)CNC5=O)nc2)CC1 [Trilaciclib, reference compound]	> 60	28	> 60	5	4640	1240					1710	half-life at 1 µmol/L ([11]; both sexes, human, liver microsomes, longer than the duration of the experiment, read-out: calculated half-life (in parenthesis)): 66 min; half-life at 1 µmol/L ([11]; male, Sprague-Dawley, rat, liver microsomes, longer than the duration of the experiment, read-out: calculated half-life (in parenthesis)): 73 min
